Reference: patent publication US4789731A, “Semi-synthetic peptide antibiotics” (Bristol-Myers Company, priority 1987, dated 1988)

What was measured:
Type in all cases: in vivo
Details in all cases: mice
P388 leukemia [1] = experiment: Antitumor effect against P388 leukemia, QD 1→9 ip
Procedure: (§1) Antitumor activity of representative compounds of the present invention was determined using in vivo murine transplantable P388 leukemia and B16 melanoma models.
(§2) P388 leukemia: female CDF1 and male BDF1 mice were inoculated by intraperitoneal injection of 0.8 ml diluted ascitic fluid containing 10^6 cells.
(§3) Test materials were dissolved in 0.9% saline containing 10% dimethyl sulfoxide and graded doses of them were administered to mice intraperitoneally 24 hrs after tumor implantation. Two dosing schedules were used for the P388 leukemia experiment: once daily on day 1 through day 3 (QD 1→3); and once daily on day 1 through day 9(QD 1→9). The QD 1→9 schedule was used for the B16 melanoma experiment.
(§4) Antitumor activity is evaluated as the increase in median survival time (MST) of treated (T) and control (C) animals for various dosage regimens expressed as a percentage ratio (T/C %=MST of treated.div.MST of control×100). For both in vivo P388 leukemia and in vivo B16 melanoma models, values for percentage ratios of 125 and above indicate significant antitumor effect.

P388 leukemia [2] = experiment: Antitumor effect against P388 leukemia, QD 1→3 ip
Procedure: as §1, §2, §3, §4

B16 melanoma = experiment: Antitumor effect against B16 melanoma, QD 1→9 ip
Procedure: as §1
B16 melanoma: male BDF1 mice were implanted with 0.5 ml of a 10% tumor brei intraperitoneally.
as §3, §4

| Structure (SMILES) | MST (% T/C) (P388 leukemia [1]; 0.13 mg/kg/day) | MST (% T/C) (P388 leukemia [1]; 0.25 mg/kg/day) | MST (% T/C) (P388 leukemia [1]; 0.63 mg/kg/day) | MST (% T/C) (P388 leukemia [1]; 1 mg/kg/day) | MST (% T/C) (P388 leukemia [1]; 2 mg/kg/day) | MST (% T/C) (P388 leukemia [2]; 1 mg/kg/day) | MST (% T/C) (P388 leukemia [2]; 3 mg/kg/day) | MST (% T/C) (P388 leukemia [2]; 10 mg/kg/day) | further results |
| --- | --- | --- | --- | --- | --- | --- | --- | --- | --- |
| CCCCCCC/C=C/C=C/C(=O)N[C@H](C(=O)N[C@H]1C[C@@H](O)CCNC(=O)/C=C/[C@H](C)NC1=O)[C@@H](C)O [BU-2867T A] | 130 | 150 | 110 | 190 % T/C | Tox | 145 | Tox | – | MST (% T/C) (P388 leukemia [1]; 0.5 mg/kg/day): 155 % T/C; MST (% T/C) (P388 leukemia [2]; .3 mg/kg/day): 130 % T/C; MST (% T/C) (B16 melanoma; 1 mg/kg/day): 116 % T/C; MST (% T/C) (B16 melanoma; 2 mg/kg/day): Tox; MST (% T/C) (B16 melanoma; .13 mg/kg/day): 97 % T/C; MST (% T/C) (B16 melanoma; .25 mg/kg/day): 100 % T/C; MST (% T/C) (B16 melanoma; .5 mg/kg/day): 113 % T/C |
| CCCCCC=CCCC=CC=CC(=O)NC(C(=O)NC1CC(O)CCNC(=O)C=CC(C)NC1=O)C(C)O (centres unmarked) [BU-2867T B] | – | 130 | 130 | 170 % T/C | 180 % T/C | – | – | – | MST (% T/C) (P388 leukemia [1]; 4 mg/kg/day): Tox; MST (% T/C) (B16 melanoma; 2 mg/kg/day): Tox |
| CCCCCCCCCC=CC=CC(=O)NC(C(=O)NC1CC(O)CCNC(=O)C=CC(C)NC1=O)C(C)O (centres unmarked) [BU-2867T C] | 130 | 160 | – | 170 % T/C | – | – | – | 57 | MST (% T/C) (P388 leukemia [1]; 4 mg/kg/day): 65 % T/C; MST (% T/C) (B16 melanoma; 4 mg/kg/day): Tox |
| CCCCCCCCCCCC(=O)N[C@H](C(=O)NC1CC(O)CCNC(=O)/C=C/C(C)NC1=O)[C@@H](C)O (some centres unmarked) [Example 1, n-Dodecanoyl-III] | – | – | – | 150 % T/C | – | 130 | – | – | – |
| CCCCCCCCCC(=O)N[C@H](C(=O)NC1CC(O)CCNC(=O)/C=C/C(C)NC1=O)[C@@H](C)O (some centres unmarked) [Example 2, n-Decanoyl-III] | – | – | – | – | – | – | – | 64 | – |
| CCCCCCCCCCCCCC(=O)N[C@H](C(=O)NC1CC(O)CCNC(=O)/C=C/C(C)NC1=O)[C@@H](C)O (some centres unmarked) [Example 3, n-Tetradecanoyl-III] | – | – | – | 150 % T/C | 150 % T/C | – | – | 55 | – |
| CCCCCCCCOc1ccc(C(=O)N[C@H](C(=O)NC2CC(O)CCNC(=O)/C=C/C(C)NC2=O)[C@@H](C)O)cc1 (some centres unmarked) [Example 6, p-n-Octyloxybenzoyl-III] | 140 | 150 | 120 | Tox | – | 150 | Tox | – | – |
| CCCCCCCCCCCCCCCC(=O)NC(C(=O)NC1CC(O)CCNC(=O)C=CC(C)NC1=O)C(C)O [Example 10, Palmitoyl-L-Threonyl-II] | – | – | – | – | – | 114 | 119 % T/C | 138 | – |
